As a reminder, the Ki is a measure of affinity in units of concentration, obtained from inhibition or displacement.

Molecules are shown by their SMILES.

The target of this experiment is T1, Neuromedin-K receptor (Homo sapiens, UniProt P29371).
T1 sequence (P29371 whole entry): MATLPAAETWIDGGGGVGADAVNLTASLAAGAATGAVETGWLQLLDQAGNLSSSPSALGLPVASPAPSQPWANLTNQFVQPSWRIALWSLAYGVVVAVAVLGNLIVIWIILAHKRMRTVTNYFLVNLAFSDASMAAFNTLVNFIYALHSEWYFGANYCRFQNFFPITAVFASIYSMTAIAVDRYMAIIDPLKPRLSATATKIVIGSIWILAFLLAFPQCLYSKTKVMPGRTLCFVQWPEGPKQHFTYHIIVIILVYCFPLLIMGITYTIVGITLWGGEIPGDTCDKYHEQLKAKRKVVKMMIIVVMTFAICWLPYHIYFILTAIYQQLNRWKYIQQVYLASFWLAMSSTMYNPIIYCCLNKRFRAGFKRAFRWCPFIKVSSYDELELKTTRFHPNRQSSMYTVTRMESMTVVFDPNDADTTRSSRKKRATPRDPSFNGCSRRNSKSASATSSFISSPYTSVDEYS
Nature of the experiment: Binding Competition Assay: NK3: The ability of compounds of the invention to inhibit the binding of the NK-3 receptor selective antagonist 3H-SB222200 was assessed by an in vitro radioligand binding assay. Membranes were prepared from Chinese hamster ovary recombinant cells stably expressing the human NK3 receptor. The membranes were incubated with 5 nM 3H-SB222200 (ARC) in a HEPES 25 mM/NaCl 0.1M/CaCl2 1 mM/MgCl2 5 Mm/BSA 0.5%/Saponin 10 μg/ml buffer at pH 7.4 and various concentrations of compounds of the invention. The amount of 3H-SB222200 bound to the receptor was determined after filtration by the quantification of membrane associated radioactivity using the TopCount-NXT reader (Packard).

As for `Cc1coc(-c2nnc3n2CCN[C@@H]3C)n1`, the Ki is 0.051 µM.

The record behind these values is ChEMBL document CHEMBL5728314, “Chiral N-acyl-5,6,7(8-substituted)-tetrahydro-[1,2,4]triazolo[4,3-a]pyrazines as selective NK-3 receptor antagonists, pharmaceutical composition, methods for use in NK-3 receptor mediated disorders and chiral synthesis thereof” (2021).
